Measurements from ChEMBL document CHEMBL3352227, “Synthesis, antimycobacterial and antibacterial evaluation of l-[(1R, 2S)-2-fluorocyclopropyl]fluoroquinolone derivatives containing an oxime functional moiety” (Eur J Med Chem, 2014).
≈ marks a conversion by molar mass, not a printed value.

Legend:
Format in all cases: functional
[1] = test system: Staphylococcus epidermidis; test: Antibacterial activity against methicillin-sensitive Staphylococcus epidermidis 12-6 after 18 to 24 hrs by standard twofold serial dilution method
Streptococcus pneumoniae [2] = test: Antibacterial activity against Streptococcus pneumoniae 12-18 after 18 to 24 hrs by standard twofold serial dilution method
[3] = test system: Staphylococcus epidermidis; test: Antibacterial activity against methicillin-sensitive Staphylococcus epidermidis 12-3 after 18 to 24 hrs by standard twofold serial dilution method
Pseudomonas aeruginosa [4] = test: Antibacterial activity against Pseudomonas aeruginosa 12-14 after 18 to 24 hrs by standard twofold serial dilution method
[5] = test system: Staphylococcus epidermidis; test: Antibacterial activity against methicillin-sensitive Staphylococcus epidermidis 12-1 after 18 to 24 hrs by standard twofold serial dilution method
Escherichia coli [6] = test: Antibacterial activity against extended-spectrum beta-lactamase producing Escherichia coli 12-2 after 18 to 24 hrs by standard twofold serial dilution method
Klebsiella pneumoniae [7] = test: Antibacterial activity against extended-spectrum beta-lactamase producin Klebsiella pneumoniae 12-14 after 18 to 24 hrs by standard twofold serial dilution method
Klebsiella pneumoniae [8] = test: Antibacterial activity against Klebsiella pneumoniae 12-4 after 18 to 24 hrs by standard twofold serial dilution method
Escherichia coli [9] = test: Antibacterial activity against Escherichia coli 12-1 after 18 to 24 hrs by standard twofold serial dilution method
Staphylococcus aureus [10] = test: Antibacterial activity against methicillin-sensitive Staphylococcus aureus 12-2 after 18 to 24 hrs by standard twofold serial dilution method
Staphylococcus aureus [11] = test: Antibacterial activity against methicillin-resistant Staphylococcus aureus 12-5 after 18 to 24 hrs by standard twofold serial dilution method
[12] = test system: Staphylococcus epidermidis; test: Antibacterial activity against methicillin-resistant Staphylococcus epidermidis 12-1 after 18 to 24 hrs by standard twofold serial dilution method
Pseudomonas aeruginosa [13] = test: Antibacterial activity against Pseudomonas aeruginosa 12-12 after 18 to 24 hrs by standard twofold serial dilution method
Klebsiella pneumoniae [14] = test: Antibacterial activity against Klebsiella pneumoniae 12-1 after 18 to 24 hrs by standard twofold serial dilution method
Klebsiella pneumoniae [15] = test: Antibacterial activity against Klebsiella pneumoniae 12-2 after 18 to 24 hrs by standard twofold serial dilution method
[16] = test system: Staphylococcus epidermidis; test: Antibacterial activity against methicillin-sensitive Staphylococcus epidermidis 12-8 after 18 to 24 hrs by standard twofold serial dilution method
Staphylococcus aureus [17] = test: Antibacterial activity against methicillin-sensitive Staphylococcus aureus 12-4 after 18 to 24 hrs by standard twofold serial dilution method
Staphylococcus aureus [18] = test: Antibacterial activity against methicillin-sensitive Staphylococcus aureus 12-5 after 18 to 24 hrs by standard twofold serial dilution method
Staphylococcus aureus [19] = test: Antibacterial activity against methicillin-resistant Staphylococcus aureus 12-4 after 18 to 24 hrs by standard twofold serial dilution method
Streptococcus pneumoniae [20] = test: Antibacterial activity against Streptococcus pneumoniae ATCC 49619 after 18 to 24 hrs by standard twofold serial dilution method
Staphylococcus aureus [21] = test: Antibacterial activity against Staphylococcus aureus ATCC 25923 after 18 to 24 hrs by standard twofold serial dilution method
Escherichia coli [22] = test: Antibacterial activity against Escherichia coli ATCC 25922 after 18 to 24 hrs by standard twofold serial dilution method
Escherichia coli [23] = test: Antibacterial activity against extended-spectrum beta-lactamase producing Escherichia coli 12-14 after 18 to 24 hrs by standard twofold serial dilution method
Klebsiella pneumoniae [24] = test: Antibacterial activity against extended-spectrum beta-lactamase producin Klebsiella pneumoniae 12-4 after 18 to 24 hrs by standard twofold serial dilution method
[25] = test system: Staphylococcus epidermidis; test: Antibacterial activity against methicillin-resistant Staphylococcus epidermidis 12-6 after 18 to 24 hrs by standard twofold serial dilution method
Klebsiella pneumoniae [26] = test: Antibacterial activity against extended-spectrum beta-lactamase producin Klebsiella pneumoniae 12-7 after 18 to 24 hrs by standard twofold serial dilution method
Escherichia coli [27] = test: Antibacterial activity against extended-spectrum beta-lactamase producing Escherichia coli 12-15 after 18 to 24 hrs by standard twofold serial dilution method
Klebsiella pneumoniae [28] = test: Antibacterial activity against extended-spectrum beta-lactamase producin Klebsiella pneumoniae 12-3 after 18 to 24 hrs by standard twofold serial dilution method
Staphylococcus aureus [29] = test: Antibacterial activity against methicillin-resistant Staphylococcus aureus 12-2 after 18 to 24 hrs by standard twofold serial dilution method
Escherichia coli [30] = test: Antibacterial activity against extended-spectrum beta-lactamase producing Escherichia coli 12-3 after 18 to 24 hrs by standard twofold serial dilution method
[31] = test system: Mycobacterium tuberculosis; test: Antimycobacterial activity against Mycobacterium tuberculosis H37Rv ATCC 27294 by MABA method
Staphylococcus aureus [32] = test: Antibacterial activity against methicillin-sensitive Staphylococcus aureus 12-1 after 18 to 24 hrs by standard twofold serial dilution method

Compound | MIC [1] [µg/mL] | MIC (Streptococcus pneumoniae [2]) [µg/mL] | MIC [3] [µg/mL] | MIC (Pseudomonas aeruginosa [4]) [µg/mL] | MIC [5] [µg/mL] | MIC (Escherichia coli [6]) [µg/mL] | MIC (Klebsiella pneumoniae [7]) [µg/mL] | MIC (Klebsiella pneumoniae [8]) [µg/mL] | MIC (Escherichia coli [9]) [µg/mL] | MIC (Staphylococcus aureus [10]) [µg/mL] | MIC (Staphylococcus aureus [11]) [µg/mL] | MIC [12] [µg/mL] | MIC (Pseudomonas aeruginosa [13]) [µg/mL] | MIC (Klebsiella pneumoniae [14]) [µg/mL] | MIC (Klebsiella pneumoniae [15]) [µg/mL] | MIC [16] [µg/mL] | MIC (Staphylococcus aureus [17]) [µg/mL] | MIC (Staphylococcus aureus [18]) [µg/mL] | MIC (Staphylococcus aureus [19]) [µg/mL] | MIC (Streptococcus pneumoniae [20]) [µg/mL] | further results
CCO/N=C1/CN(c2c(F)cc3c(=O)c(C(=O)O)cn([C@@H]4C[C@@H]4F)c3c2OC)CC1CN (some centres undefined) | 0.25 (≈ 0.555 µM) | 4 (≈ 8.88 µM) | 2 (≈ 4.44 µM) | 128 (≈ 284 µM) | 0.25 (≈ 0.555 µM) | > 128 | > 128 | 4 (≈ 8.88 µM) | 16 (≈ 35.5 µM) | 0.25 (≈ 0.555 µM) | 64 (≈ 142 µM) | 32 (≈ 71 µM) | 8 (≈ 17.8 µM) | 4 (≈ 8.88 µM) | 4 (≈ 8.88 µM) | 16 (≈ 35.5 µM) | 0.25 (≈ 0.555 µM) | 0.25 (≈ 0.555 µM) | 128 (≈ 284 µM) | 4 (≈ 8.88 µM) | MIC (Staphylococcus aureus [21]): 0.015 µg/mL (≈ 0.0333 µM); MIC (Escherichia coli [22]): 4 µg/mL (≈ 8.88 µM); MIC (Escherichia coli [23]): > 128 µg/mL; MIC (Klebsiella pneumoniae [24]): 128 µg/mL (≈ 284 µM); MIC [25]: > 128 µg/mL; MIC (Klebsiella pneumoniae [26]): 32 µg/mL (≈ 71 µM); MIC (Escherichia coli [27]): > 128 µg/mL; MIC (Klebsiella pneumoniae [28]): > 128 µg/mL; MIC (Staphylococcus aureus [29]): 128 µg/mL (≈ 284 µM); MIC (Escherichia coli [30]): > 128 µg/mL; MIC [31]: 32 µg/mL (≈ 71 µM); MIC (Staphylococcus aureus [32]): 0.25 µg/mL (≈ 0.555 µM)
NC[C@@H]1/C(=N\OCc2ccccc2)CN1c1cc2c(cc1F)c(=O)c(C(=O)O)cn2[C@@H]1C[C@@H]1F | 1 (≈ 2.13 µM) | 8 (≈ 17.1 µM) | 2 (≈ 4.27 µM) | 32 (≈ 68.3 µM) | 1 (≈ 2.13 µM) | > 128 | 128 (≈ 273 µM) | 0.5 (≈ 1.07 µM) | 8 (≈ 17.1 µM) | 1 (≈ 2.13 µM) | 128 (≈ 273 µM) | 32 (≈ 68.3 µM) | 2 (≈ 4.27 µM) | 0.5 (≈ 1.07 µM) | 0.5 (≈ 1.07 µM) | 2 (≈ 4.27 µM) | 1 (≈ 2.13 µM) | 1 (≈ 2.13 µM) | > 128 | 0.5 (≈ 1.07 µM) | MIC (Staphylococcus aureus [21]): 0.25 µg/mL (≈ 0.534 µM); MIC (Escherichia coli [22]): 0.25 µg/mL (≈ 0.534 µM); MIC (Escherichia coli [23]): 128 µg/mL (≈ 273 µM); MIC (Klebsiella pneumoniae [24]): 16 µg/mL (≈ 34.2 µM); MIC [25]: 8 µg/mL (≈ 17.1 µM); MIC (Klebsiella pneumoniae [26]): 2 µg/mL (≈ 4.27 µM); MIC (Escherichia coli [27]): > 128 µg/mL; MIC (Klebsiella pneumoniae [28]): 128 µg/mL (≈ 273 µM); MIC (Staphylococcus aureus [29]): > 128 µg/mL; MIC (Escherichia coli [30]): 16 µg/mL (≈ 34.2 µM); MIC [31]: 8 µg/mL (≈ 17.1 µM); MIC (Staphylococcus aureus [32]): 1 µg/mL (≈ 2.13 µM)
